Data published in ChEMBL document CHEMBL1201861, “Genomics of Drug Sensitity in Cancer screening data, Wellcome Trust Sanger Institute”.

Legend:
Experiment in all cases: cells
[1] = test system: SK-N-AS; format: functional, cell-based, Homo sapiens; conditions: Homo sapiens, SK-N-AS;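 note: growth inhibition of human SK-N-AS cells, measured with a cell viability assay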
Description: SANGER: Inhibition of human SK-N-AS cell growth in a cell viability assay.

[2] = test system: CWR22R; format: functional, cell-based, Homo sapiens; conditions: Homo sapiens, 22Rv1;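 note: growth inhibition of 22Rv1 cells, read out with a cell viability assay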
Description: SANGER: Inhibition of human 22RV1 cell growth in a cell viability assay.

[3] = test system: SK-N-DZ; format: functional, cell-based, Homo sapiens; conditions: Homo sapiens, SK-N-DZ;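 note: growth inhibition of the cancer cell line, read out through a viability assay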
Description: SANGER: Inhibition of human SK-N-DZ cell growth in a cell viability assay.

[4] = test system: DMS-79; format: functional, cell-based; conditions: Homo sapiens;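 note: growth inhibition measured with a cell viability assay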
Description: SANGER: Inhibition of human DMS-79 cell growth in a cell viability assay.

[5] = test system: SW872; format: functional, cell-based, Homo sapiens; conditions: Homo sapiens, SW872;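 note: growth inhibition of SW872 cells, read out by a viability assay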
Description: SANGER: Inhibition of human SW872 cell growth in a cell viability assay.

[6] = test system: COLO-684; format: functional, cell-based; conditions: Homo sapiens
Description: SANGER: Inhibition of human COLO-684 cell growth in a cell viability assay.

[7] = test system: BXPC-3; format: functional, cell-based, Homo sapiens; conditions: Homo sapiens, BXPC-3;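 note: growth inhibition of human BxPC-3 cells, read out by a cell viability assay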
Description: SANGER: Inhibition of human BxPC-3 cell growth in a cell viability assay.

[8] = test system: DJM-1; format: functional, cell-based, Homo sapiens; conditions: Homo sapiens, DJM-1;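 note: growth inhibition of human DJM-1 cells, read out by a cell viability assay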
Description: SANGER: Inhibition of human DJM-1 cell growth in a cell viability assay.

[9] = test system: NCI-H2087; format: functional, cell-based, Homo sapiens; conditions: Homo sapiens, NCI-H2087;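 note: growth inhibition determined with a cell viability readout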
Description: SANGER: Inhibition of human NCI-H2087 cell growth in a cell viability assay.

[10] = test system: CP50-MEL-B; format: functional, cell-based, Homo sapiens; conditions: Homo sapiens, CP50-MEL-B;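 note: growth inhibition of the human cell line, measured with a cell viability read-out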
Description: SANGER: Inhibition of human CP50-MEL-B cell growth in a cell viability assay.

[11] = test system: HEC-1; format: functional, cell-based, Homo sapiens; conditions: Homo sapiens, HEC-1;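 note: growth inhibition of the cell line, read out with a cell viability assay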
Description: SANGER: Inhibition of human HEC-1 cell growth in a cell viability assay.

[12] = test system: J-RT3-T3-5; format: functional, cell-based; conditions: Homo sapiens;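 note: cell viability assay measuring growth inhibition of human J-RT3-T3-5 cells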
Description: SANGER: Inhibition of human J-RT3-T3-5 cell growth in a cell viability assay.

[13] = test system: OCUB-M; format: functional, cell-based, Homo sapiens; conditions: Homo sapiens, OCUB-M;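 note: growth inhibition of the cancer cell line, read out through a cell viability assay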
Description: SANGER: Inhibition of human OCUB-M cell growth in a cell viability assay.

[14] = test system: TGBC24TKB; format: functional, cell-based, Homo sapiens; conditions: Homo sapiens, TGBC24TKB;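 note: growth inhibition of human TGBC24TKB cells, read out with a cell viability assay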
Description: SANGER: Inhibition of human TGBC24TKB cell growth in a cell viability assay.

[15] = test system: K562; format: functional, cell-based; conditions: Homo sapiens
Description: SANGER: Inhibition of human K-562 cell growth in a cell viability assay.

[16] = test system: KNS-42; format: functional, cell-based, Homo sapiens; conditions: Homo sapiens, KNS-42;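 note: growth inhibition of KNS-42 cells, read out with a cell viability assay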
Description: SANGER: Inhibition of human KNS-42 cell growth in a cell viability assay.

[17] = test system: D-502MG; format: functional, cell-based, Homo sapiens; conditions: Homo sapiens, D-502MG
Description: SANGER: Inhibition of human D-502MG cell growth in a cell viability assay.

[18] = test system: Ramos-2G6-4C10; format: functional, cell-based; conditions: Homo sapiens;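 note: growth inhibition of the cell line, measured by a cell viability read-out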
Description: SANGER: Inhibition of human Ramos-2G6-4C10 cell growth in a cell viability assay.

[19] = test system: S-117; format: functional, cell-based, Homo sapiens; conditions: Homo sapiens, S-117
Description: SANGER: Inhibition of human S-117 cell growth in a cell viability assay.

[20] = test system: SNU1; format: functional, cell-based; conditions: Homo sapiens;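 note: growth inhibition of human NCI-SNU-1 cells, measured with a cell viability assay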
Description: SANGER: Inhibition of human NCI-SNU-1 cell growth in a cell viability assay.

[21] = test system: BB30-HNC; format: functional, cell-based, Homo sapiens; conditions: Homo sapiens, BB30-HNC;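 note: growth inhibition of the cultured cell line, read out by a cell viability assay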
Description: SANGER: Inhibition of human BB30-HNC cell growth in a cell viability assay.

[22] = test system: NCI-H2452; format: functional, cell-based, Homo sapiens; conditions: Homo sapiens, NCI-H2452;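 note: growth inhibition of NCI-H2452 cells, read out with a cell viability assay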
Description: SANGER: Inhibition of human NCI-H2452 cell growth in a cell viability assay.

[23] = test system: HO-1-N-1; format: functional, cell-based, Homo sapiens; conditions: Homo sapiens, HO-1-N-1;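 note: growth inhibition of human HO-1-N-1 cells, read out with a cell viability assay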
Description: SANGER: Inhibition of human HO-1-N-1 cell growth in a cell viability assay.

[24] = test system: EM-2; format: functional, cell-based; conditions: Homo sapiens;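 note: growth inhibition of EM-2 cells, read out with a cell viability assay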
Description: SANGER: Inhibition of human EM-2 cell growth in a cell viability assay.

[25] = test system: LXF-289 cell line; format: functional, cell-based, Homo sapiens; conditions: Homo sapiens, LXF-289
Description: SANGER: Inhibition of human LXF-289 cell growth in a cell viability assay.

[26] = test system: IGROV-1; format: functional, cell-based, Homo sapiens; conditions: Homo sapiens, IGROV-1;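 note: reduction of IGROV-1 cell growth, read out with a viability assay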
Description: SANGER: Inhibition of human IGROV-1 cell growth in a cell viability assay.

[27] = test system: SW1463; format: functional, cell-based, Homo sapiens; conditions: Homo sapiens, SW1463;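 note: growth inhibition of SW1463 cells, determined with a cell viability assay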
Description: SANGER: Inhibition of human SW1463 cell growth in a cell viability assay.

[28] = test system: HOS; format: functional, cell-based, Homo sapiens; conditions: Homo sapiens, HOS;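 note: growth inhibition of human HOS cells, read out with a cell viability assay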
Description: SANGER: Inhibition of human HOS cell growth in a cell viability assay.

[29] = test system: CAL-51; format: functional, cell-based, Homo sapiens; conditions: Homo sapiens, CAL-51;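 note: human CAL-51 cell line, growth inhibition read out via a cell viability assay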
Description: SANGER: Inhibition of human CAL-51 cell growth in a cell viability assay.

[30] = test system: KP-4; format: functional, cell-based, Homo sapiens; conditions: Homo sapiens, KP-4; read-out: IC50;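 note: human KP-4 cells, with growth inhibition read out through a cell viability assay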
Description: SANGER: Inhibition of human KP-4 cell growth in a cell viability assay.

[31] = test system: NCI-H2126; format: functional, cell-based, Homo sapiens; conditions: Homo sapiens, NCI-H2126;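 note: growth inhibition of the cancer cell line, determined with a cell viability readout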
Description: SANGER: Inhibition of human NCI-H2126 cell growth in a cell viability assay.

[32] = test system: RCM-1; format: functional, cell-based, Homo sapiens; conditions: Homo sapiens, RCM-1;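 note: growth inhibition of the RCM-1 line, determined with a cell viability readout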
Description: SANGER: Inhibition of human RCM-1 cell growth in a cell viability assay.

[33] = test system: KYSE-70 cell line; format: functional, cell-based, Homo sapiens; conditions: Homo sapiens, KYSE-70;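 note: cell viability assay read-out, with IC50 expressing suppression of KYSE-70 cell growth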
Description: SANGER: Inhibition of human KYSE-70 cell growth in a cell viability assay.

[34] = test system: MDA-MB-415; format: functional, cell-based; conditions: Homo sapiens
[35] = test system: UMC-11; format: functional, cell-based, Homo sapiens; conditions: Homo sapiens, UMC-11;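 note: growth inhibition of UMC-11 cells, read out with a cell viability assay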
Description: SANGER: Inhibition of human UMC-11 cell growth in a cell viability assay.

[36] = test system: NCI-H650; format: functional, cell-based, Homo sapiens; conditions: Homo sapiens, NCI-H650;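 note: growth inhibition of NCI-H650 cells, read out by a viability assay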
Description: SANGER: Inhibition of human NCI-H650 cell growth in a cell viability assay.

[37] = test system: SK-MEL-24; format: functional, cell-based; conditions: Homo sapiens;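 note: growth inhibition read out by a cell viability assay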
Description: SANGER: Inhibition of human SK-MEL-24 cell growth in a cell viability assay.

[38] = test system: HCC1395; format: functional, cell-based, Homo sapiens; conditions: Homo sapiens, HCC1395;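 note: growth inhibition of HCC1395 cells, read out by a cell viability assay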
Description: SANGER: Inhibition of human HCC1395 cell growth in a cell viability assay.

[39] = test system: C-33-A; format: functional, cell-based, Homo sapiens; conditions: Homo sapiens, C-33-A;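 note: cell viability assay measuring growth inhibition of C-33-A cells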
Description: SANGER: Inhibition of human C-33-A cell growth in a cell viability assay.

[40] = test system: A2780; format: functional, cell-based, Homo sapiens; conditions: Homo sapiens, A2780;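 note: growth inhibition of A2780 cells, read out with a cell viability assay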
Description: SANGER: Inhibition of human A2780 cell growth in a cell viability assay.

[41] = test system: HT-1376; format: functional, cell-based, Homo sapiens; conditions: Homo sapiens, HT-1376
Description: SANGER: Inhibition of human HT-1376 cell growth in a cell viability assay.

[42] = test system: L-363; format: functional, cell-based; conditions: Homo sapiens
Description: SANGER: Inhibition of human L-363 cell growth in a cell viability assay.

[43] = test system: AU565; format: functional, cell-based, Homo sapiens; conditions: Homo sapiens, AU565;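 note: cell viability assay measuring growth inhibition of human AU565 cells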
Description: SANGER: Inhibition of human AU565 cell growth in a cell viability assay.

[44] = test system: DSH1; format: functional, cell-based, Homo sapiens; conditions: Homo sapiens, DSH1;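 note: growth inhibition of human DSH1 cells, measured with a cell viability readout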
Description: SANGER: Inhibition of human DSH1 cell growth in a cell viability assay.

[45] = test system: GAMG; format: functional, cell-based, Homo sapiens; conditions: Homo sapiens, GAMG;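 note: cell growth inhibition measured by a viability assay in the GAMG human cell line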
Description: SANGER: Inhibition of human GAMG cell growth in a cell viability assay.

[46] = test system: C3A; format: functional, cell-based, Homo sapiens; conditions: Homo sapiens, C3A;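 note: growth inhibition of C3A human cells, quantified with a cell viability readout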
Description: SANGER: Inhibition of human C3A cell growth in a cell viability assay.

[47] = test system: MMAC-SF; format: functional, cell-based, Homo sapiens; conditions: Homo sapiens, MMAC-SF;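 note: growth inhibition of human MMAC-SF cells, read out with a cell viability assay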
Description: SANGER: Inhibition of human MMAC-SF cell growth in a cell viability assay.

[48] = test system: A3-KAW; format: functional, cell-based; conditions: Homo sapiens;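 note: growth inhibition of human A3-KAW cells, read out with a cell viability assay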
Description: SANGER: Inhibition of human A3-KAW cell growth in a cell viability assay.

[49] = test system: RPMI-2650; format: functional, cell-based, Homo sapiens; conditions: Homo sapiens, RPMI-2650
Description: SANGER: Inhibition of human RPMI-2650 cell growth in a cell viability assay.

[50] = test system: MV4-11; format: functional, cell-based, MV-4-11; conditions: Homo sapiens;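 note: cell viability readout measuring growth inhibition of human MV-4-11 cells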
Description: SANGER: Inhibition of human MV-4-11 cell growth in a cell viability assay.

[51] = test system: OCI-AML2; format: functional, cell-based; conditions: Homo sapiens;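 note: growth inhibition of OCI-AML2 cells, read out with a cell viability assay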
Description: SANGER: Inhibition of human OCI-AML2 cell growth in a cell viability assay.

CN(c1ncccc1CNc1nc(Nc2ccc3c(c2)CC(=O)N3)ncc1C(F)(F)F)S(C)(=O)=O [PF-00562271]
IC50 [1]: > 2.56 µM
IC50 [2]: > 2.56 µM
IC50 [3]: > 2.56 µM
IC50 [4]: > 2.56 µM
IC50 [5]: > 2.56 µM
IC50 [6]: > 2.56 µM
IC50 [7]: 2.35 µM
IC50 [8]: > 2.56 µM
IC50 [9]: > 2.56 µM
IC50 [10]: > 2.56 µM
IC50 [11]: > 2.56 µM
IC50 [12]: > 2.56 µM
IC50 [13]: > 2.56 µM
IC50 [14]: > 2.56 µM
IC50 [15]: > 2.56 µM
IC50 [16]: > 2.56 µM
IC50 [17]: > 2.56 µM
IC50 [18]: > 2.56 µM
IC50 [19]: > 2.56 µM
IC50 [20]: > 2.56 µM
IC50 [21]: > 2.56 µM
IC50 [22]: > 2.56 µM
IC50 [23]: > 2.56 µM
IC50 [24]: > 2.56 µM
IC50 [25]: > 2.56 µM
IC50 [26]: 0.81 µM
IC50 [27]: > 2.56 µM
IC50 [28]: > 2.56 µM
IC50 [29]: > 2.56 µM
IC50 [30]: > 2.56 µM
IC50 [31]: > 2.56 µM
IC50 [32]: > 2.56 µM
IC50 [33]: > 2.56 µM
IC50 [34]: > 2.56 µM
IC50 [35]: > 2.56 µM
IC50 [36]: 0.832 µM
IC50 [37]: > 2.56 µM
IC50 [38]: > 2.56 µM
IC50 [39]: > 2.56 µM
IC50 [40]: > 2.56 µM
IC50 [41]: > 2.56 µM
IC50 [42]: > 2.56 µM
IC50 [43]: > 2.56 µM
IC50 [44]: > 2.56 µM
IC50 [45]: > 2.56 µM
IC50 [46]: > 2.56 µM
IC50 [47]: > 2.56 µM
IC50 [48]: > 2.56 µM
IC50 [49]: > 2.56 µM
IC50 [50]: 0.277 µM
IC50 [51]: > 2.56 µM

Cn1cncc1[C@@](N)(c1ccc(Cl)cc1)c1ccc2c(c1)c(-c1cccc(Cl)c1)cc(=O)n2C [TIPIFARNIB]
IC50 [1]: > 16 µM
IC50 [2]: 3.22 µM
IC50 [3]: 4.71 µM
IC50 [4]: > 16 µM
IC50 [5]: 1.45 µM
IC50 [6]: 5.71 µM
IC50 [7]: 4.33 µM
IC50 [8]: > 16 µM
IC50 [9]: 2.28 µM
IC50 [10]: > 16 µM
IC50 [11]: 7.15 µM
IC50 [12]: 1.32 µM
IC50 [13]: 0.472 µM
IC50 [14]: > 16 µM
IC50 [15]: 4.82 µM
IC50 [16]: 5.76 µM
IC50 [17]: > 16 µM
IC50 [18]: > 16 µM
IC50 [19]: 9.59 µM
IC50 [20]: > 16 µM
IC50 [21]: 0.585 µM
IC50 [22]: > 16 µM
IC50 [23]: 10.5 µM
IC50 [24]: > 16 µM
IC50 [25]: 4.13 µM
IC50 [26]: 0.208 µM
IC50 [27]: > 16 µM
IC50 [28]: 4.1 µM
IC50 [29]: 3.53 µM
IC50 [30]: 13.6 µM
IC50 [31]: > 16 µM
IC50 [32]: > 16 µM
IC50 [33]: 1.41 µM
IC50 [34]: 14.2 µM
IC50 [35]: > 16 µM
IC50 [36]: 0.773 µM
IC50 [37]: 1.71 µM
IC50 [38]: 14.9 µM
IC50 [39]: 4.49 µM
IC50 [40]: 3.3 µM
IC50 [41]: 11.6 µM
IC50 [42]: > 16 µM
IC50 [43]: 1.79 µM
IC50 [44]: 8.53 µM
IC50 [45]: 8.92 µM
IC50 [46]: 4.64 µM
IC50 [47]: 13.7 µM
IC50 [48]: 0.901 µM
IC50 [49]: 8.29 µM
IC50 [50]: 0.733 µM
IC50 [51]: 2.03 µM
